# Where two headings read alike, the source gives them in different places.
# Columns and labels:
# [1] = β-sheet content by ATR-FT-IR; assay type: physicochemical; details: Fig. S7 panel A; β-sheet content by ATR-FT-IR
# Method in brief: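 Conversion rate: fluorescamine fluorescence (ex 365/em 470 nm, 20 min RT) of 3 kDa filtrate versus unfiltered PNF, CR = 100 − 100 × filtrate/original intensity, triplicates. β-sheet content came from ATR FT-IR of lyophilized 1 mg/mL PNF powder, 64 scans.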
# [2] = test system: HIV-1 infection of TZM-bl cells; test: HIV-1 infectivity enhancement assay, β-galactosidase luminescence; assay type: cell-based; details: for Rel-EFC / Log10 Infection Rel EFC: 1.3 µM peptide; for Rel-EFC: infection relative to EF-C (QCKIKQIINMWQ = 1); for Log10 Infection Rel EFC: log10 of infection relative to EF-C; for Log Infectivity: Log10 infection relative to EF-C, asymmetric std dev errors; for Log10 Infection Rel EF-C: HIV-1 infection of TZM-bl cells; for Log10 of Rel to EFC (Feb2021): Log10 of infection relative to EF-C, all peptides of FigS16; for Abs. Inf.: β-galactosidase luminescence
# [3] = assay type: physicochemical; details: for ThT Cat. / ThT-Fluorescence (categorical): ThT-active if fluorescence at least twice the control
# Method in brief: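 Fibrils (1 mg/mL solution) were mixed with 50 µM ThT in PBS for 15 min at RT, and fluorescence was read at λex 440/λem 488 nm against a PBS blank, as a triplicate mean ± SD. Zeta potential came from electrophoretic mobility (Smoluchowski) after 1 d aggregation at 1 mg/mL in PBS pH 7.4, diluted into 1 mM KCl.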
# [4] = Fig. S7 panel A (plotted against β-sheet content), TZM-bl cells
# [5] = Log10 of infection rate relative to EF-C, Figure 3A source data
# [6] = infection rate relative to EF-C, log10, data of Figure 2D
# [7] = infection rate relative to EF-C, log10, source data of Figure 2C
# [8] = Fig. S7 panel B (plotted against CR), rounded to two decimals, TZM-bl cells
# [9] = ThT fluorescence category, 1 if Rel. ThT >2
substance,measurement,setting,value
KFKQFFINMWQ,b -sheet / %,[1],38.37%
same,Rel-EFC,[2],"0,92"
same,Log10 Infection Rel EFC,[2],"-0,04"
same,Log Infectivity,[2]; [4],-0.03603
same,Log10 Infection Rel EF-C,[2]; [5],-0.04
same,Log10 Infection Rel EF-C,[2]; [6],-0.03603
same,Log10 Infection Rel EF-C,[2]; [7],-0.03603
same,Log10 of Rel to EFC (Feb2021),[2],-0.04
same,Abs. Inf.,"[2]; absolute HIV-1 infection signal, TZM-bl cells",14953.33333
same,Tht category (> 2 to blank = +),[3]; Fig S10 panel D,0 (ThT-inactive (N-Fold <2))
same,"ThT Cat,","[3]; ThT category, 1 if Rel. ThT >2",0 (ThT-inactive (N-Fold <2))
same,ThT Cat.,"[3]; ThT category, 1 if Rel. ThT >2",0 (ThT-inactive (N-Fold <2))
same,ThT Cat. / ThT-Fluorescence (categorical),[3],0 (ThT-inactive (N-Fold <2))
QCKFKQFFNMWQ,b -sheet / %,[1],41.78%
same,Rel-EFC,[2],"0,01"
same,Log10 Infection Rel EFC,[2],"-2,18"
same,Log Infectivity,[2]; [4],-0.6059
same,Log Infectivity,[2]; [8],-0.61
same,Log10 Infection Rel EF-C,[2]; [5],-0.61
same,Log10 Infection Rel EF-C,[2]; [6],-0.6059
same,Log10 Infection Rel EF-C,[2]; [7],-0.61
same,Log10 of Rel to EFC (Feb2021),[2],-0.61
same,Abs. Inf.,"[2]; absolute infection signal, HIV-1 on TZM-bl cells",30896.66667
same,Log10 Inf. rel. to EF-C,[2]; log10 of HIV-1 infection of TZM-bl cells relative to EF-C (EF-C = 0),-0.6059
same,Tht category (> 2 to blank = +),[3]; Fig S10 panel D,"1 (ThT. Cat is 1, if Rel. ThT >2)"
same,ThT Cat.,[3]; Fig S10 panel E,"1 (ThT. Cat is 1, if Rel. ThT >2)"
same,"ThT Cat,","[3]; ThT category, 1 if Rel. ThT >2","1 (ThT. Cat is 1, if Rel. ThT >2)"
same,ThT Cat.,"[3]; ThT category, 1 if Rel. ThT >2","1 (ThT. Cat is 1, if Rel. ThT >2)"
same,ThT Cat. / ThT-Fluorescence (categorical),[3],"1 (ThT. Cat is 1, if Rel. ThT >2)"
KLKLQLL,b -sheet / %,[1],39.56%
same,Rel-EFC,[2],"0,01"
same,Log10 Infection Rel EFC,[2],"-2,16"
same,Log Infectivity,[2]; [4],-2.156
same,Log10 Infection Rel EF-C,[2]; [5],-2.16
same,Log10 Infection Rel EF-C,[2]; [6],-2.156
same,Log10 Infection Rel EF-C,[2]; [7],-2.156
same,Tht category (> 2 to blank = +),[3]; Fig S10 panel D,0 (ThT-inactive (N-Fold <2))
same,Tht category (> 2 to blank = +),[3]; FigS12 panel A,0 (ThT-inactive (N-Fold <2))
same,"ThT Cat,",[3]; FigS12 panel B,0 (ThT-inactive (N-Fold <2))
same,"ThT Cat,","[3]; ThT category, 1 if Rel. ThT >2",0 (ThT-inactive (N-Fold <2))
same,ThT Cat.,[3]; [9],0 (ThT-inactive (N-Fold <2))
same,ThT Cat. / ThT-Fluorescence (categorical),[3],0 (ThT-inactive (N-Fold <2))
CEFEFQFNMWQ,b -sheet / %,[1],51.48%
same,Rel-EFC,[2],"0,14"
same,Log10 Infection Rel EFC,[2],"-0,85"
same,Log Infectivity,[2]; [4],-0.8509
same,Log Infectivity,[2]; [8],-0.85
same,Log10 Infection Rel EF-C,[2]; [5],-0.85
same,Log10 Infection Rel EF-C,[2]; [6],-0.8509
same,Log10 Infection Rel EF-C,[2]; [7],-0.8509
same,Log10 of Rel to EFC (Feb2021),[2],-0.85
same,Tht category (> 2 to blank = +),[3]; Fig S10 panel D,"1 (ThT. Cat is 1, if Rel. ThT >2)"
same,ThT Cat.,[3]; Fig S10 panel E,"1 (ThT. Cat is 1, if Rel. ThT >2)"
same,"ThT Cat,","[3]; ThT category, 1 if Rel. ThT >2","1 (ThT. Cat is 1, if Rel. ThT >2)"
same,ThT Cat.,[3]; [9],"1 (ThT. Cat is 1, if Rel. ThT >2)"
same,ThT Cat. / ThT-Fluorescence (categorical),[3],"1 (ThT. Cat is 1, if Rel. ThT >2)"
KIKIQIII,b -sheet / %,[1],45.8425%
same,Rel-EFC,[2],"0,35"
same,Log10 Infection Rel EFC,[2],"-0,45"
same,Log Infectivity,[2]; [4],-0.4521
same,Log Infectivity,[2]; [8],-0.45
same,Log10 Infection Rel EF-C,[2]; [5],-0.45
same,Log10 Infection Rel EF-C,[2]; [6],-0.4521
same,Log10 Infection Rel EF-C,[2]; [7],-0.4521
same,Log10 of Rel to EFC (Feb2021),[2],-0.45
same,Tht category (> 2 to blank = +),[3]; Fig S10 panel D,"1 (ThT. Cat is 1, if Rel. ThT >2)"
same,ThT Cat.,[3]; Fig S10 panel E,"1 (ThT. Cat is 1, if Rel. ThT >2)"
same,"ThT Cat,","[3]; ThT category, 1 if Rel. ThT >2","1 (ThT. Cat is 1, if Rel. ThT >2)"
same,ThT Cat.,[3]; [9],"1 (ThT. Cat is 1, if Rel. ThT >2)"
same,ThT Cat. / ThT-Fluorescence (categorical),[3],"1 (ThT. Cat is 1, if Rel. ThT >2)"
KFKFKFQF,b -sheet / %,[1],39.76%
same,Rel-EFC,[2],"0,8"
same,Log10 Infection Rel EFC,[2],"-0,1"
same,Log Infectivity,[2]; [4],-0.09726
same,Log Infectivity,[2]; [8],-0.1
same,Log10 Infection Rel EF-C,[2]; [5],-0.1
same,Log10 Infection Rel EF-C,[2]; [6],-0.09726
same,Log10 Infection Rel EF-C,[2]; [7],-0.09726
same,Log10 of Rel to EFC (Feb2021),[2],-0.1
same,Tht category (> 2 to blank = +),[3]; Fig S10 panel D,"1 (ThT. Cat is 1, if Rel. ThT >2)"
same,ThT Cat.,[3]; Fig S10 panel E,"1 (ThT. Cat is 1, if Rel. ThT >2)"
same,"ThT Cat,","[3]; ThT category, 1 if Rel. ThT >2","1 (ThT. Cat is 1, if Rel. ThT >2)"
same,ThT Cat.,[3]; [9],"1 (ThT. Cat is 1, if Rel. ThT >2)"
same,ThT Cat. / ThT-Fluorescence (categorical),[3],"1 (ThT. Cat is 1, if Rel. ThT >2)"
CEIEIQINM,b -sheet / %,[1],46.31%
same,Rel-EFC,[2],"0,07"
same,Log10 Infection Rel EFC,[2],"-1,19"
same,Log Infectivity,[2]; [4],-1.186
same,Log Infectivity,[2]; [8],-1.19
same,Log10 Infection Rel EF-C,[2]; [5],-1.19
same,Log10 Infection Rel EF-C,[2]; [6],-1.186
same,Log10 Infection Rel EF-C,[2]; [7],-1.186
same,Tht category (> 2 to blank = +),[3]; Fig S10 panel D,"1 (ThT. Cat is 1, if Rel. ThT >2)"
same,ThT Cat.,[3]; Fig S10 panel E,"1 (ThT. Cat is 1, if Rel. ThT >2)"
same,Tht category (> 2 to blank = +),[3]; FigS12 panel A,"1 (ThT. Cat is 1, if Rel. ThT >2)"
same,"ThT Cat,",[3]; FigS12 panel B,"1 (ThT. Cat is 1, if Rel. ThT >2)"
same,"ThT Cat,","[3]; ThT category, 1 if Rel. ThT >2","1 (ThT. Cat is 1, if Rel. ThT >2)"
same,ThT Cat.,[3]; [9],"1 (ThT. Cat is 1, if Rel. ThT >2)"
same,ThT Cat. / ThT-Fluorescence (categorical),[3],"1 (ThT. Cat is 1, if Rel. ThT >2)"

# Source: paper PMC10447463, “Data-mining unveils structure–property–activity correlation of viral infectivity enhancing self-assembling peptides” (Nature Communications, 2023)
